The test system of the assay is rat tail artery helical strip. The note with it: strips contracted with arginine vasopressin, dose of 100 mg/ml.

Experimental: Male and female Sprague-Dawley rats were anesthetized with pentobarbital (50 mg/kg) before removal of the tail artery. Upon isolation the artery was placed in ice cold Krebs-Hensleit solution (KHS) which was oxygenated with 95% O2, 5% CO2. The vessels were cut helically and strips of approximately 1.5 cm were secured in a Sawyer-Bartleston chamber containing KHS. The development of force of the helical strips was measured with a Grass FT.03 force displacement transducer and recorded on a Grass Model 79D polygraph. Isolated tail artery helical strips were equilibrated for one hour prior to addition of any peptide. In all cases, the strips were first contracted by adding arginine vasopressin (AVP), to the bath. The peptide being studied was then added to the bath and the degree of relaxation was determined.

Consider `N=C(N)NCCC[C@@H](N)C(=O)O` [D Arg, D-arginine], for which the Tension change was 0 gm.
